Assays:
Format in all cases: cell-based
[1] = test system: AP-1 (c-Jun); assay: AP-1 activation by ultraviolet ray in human dermal fibroblasts, ELISA assay (TransAM Kit), quantity of c-Jun; conditions: 18 h incubation, UVA 20 J/cm^2, ELISA
Experimental: (§1) The fibroblasts were irradiated with ultraviolet rays (UVA: 20 J/cm^2) using Dermaray M-DMR-80 (manufactured by Toshiba Iryoyohin). After 4 to 5 hours, the fibroblasts were recovered and the nucleoprotein was extracted therefrom by a conventional method. The resulting nucleoprotein was subjected to a gel shift assay or an ELISA assay (TransAM Kit, ACTIVE MOTIF) to detect activated AP-1. When applying the gel shift assay, the radioactive value of the AP-1 band was measured using a bio-imaging analyzer BAS 2000 (manufactured by Fuji Photo Film).
(§2) An ELISA assay was performed in accordance with the manual of the kit used, and the activation of AP-1 was obtained by determination of the quantity of c-Jun or c-Fos.
(§3) The suppression rate of AP-1 (c-Jun or c-Fos) activation of a test compound was calculated from the following formula. Suppression Rate for AP-1 Activation (%)={1−{B1−B3)/(B2−B3)}×100 B1: 450 nm absorbance when a test compound was added (per nucleoprotein) B2: 450 nm absorbance when no test compound was added (per nucleoprotein) B3: 450 nm absorbance when no test compound was added and no ultraviolet ray was irradiated (per nucleoprotein)

[2] = test system: AP-1 (c-Fos); assay: AP-1 activation by ultraviolet ray in human dermal fibroblasts, ELISA assay (TransAM Kit), quantity of c-Fos; conditions: 18 h incubation, UVA 20 J/cm^2, ELISA
Experimental: as §1, §2, §3

[3] = test system: AP-1; assay: Action on AP-1 activation by ultraviolet ray (UVA) in human dermal fibroblasts, activated AP-1 in nucleoprotein (gel shift or ELISA assay); conditions: 50 μM, 18 h incubation, UVA 20 J/cm^2
Experimental: as §1
The suppression rate of the test compound for AP-1 activation was calculated from the following formula. Suppression Rate for AP-1 Activation (%)={1−(A1−A3)/(A2−A3)}×100 A1: radioactive value of AP-1 band when a test compound was added A2: radioactive value of AP-1 band when no test compound was added A3: radioactive value of AP-1 band when no test compound was added and no irradiation with ultraviolet rays

| Molecule | Suppressing Rate (%) (c-Jun) ([1]; 10 μM) | Suppressing Rate (%) (c-Jun) ([1]; 100 μM) | Suppressing Rate (%) (c-FOS) ([2]; 10 μM) | Suppressing Rate (%) (c-FOS) ([2]; 100 μM) | Suppressing Rate (%) for AP-1 activation [3] [%] |
| --- | --- | --- | --- | --- | --- |
| O=C1CC[C@@H](C(=O)[O-])N1.O=C1CC[C@@H](C(=O)[O-])N1.[Zn+2] [Zinc L-Pyrrolidonecarboxylate] | 109.5 | 106.7 | 69.3 | 77.0 | – |
| NCC(=O)[O-].NCC(=O)[O-].[Zn+2] [Zinc Salt of Glycine] | – | – | – | – | −72.8 |
| Zinc Laurate | – | – | – | – | 9.1 |
| O=C1CCC(C(=O)[O-])N1.O=C1CCC(C(=O)[O-])N1.[Zn+2] (racemic) [Zinc DL-Pyrrolidonecarboxylate] | – | – | – | – | 38.8 |

From patent US20050271606A1, “Composition for treating inflammation which contains zinc pyrrolidonecarboxylate” (priority 2004, published 2005)
